In US20120316122A1, “PHARMACEUTICAL COMPOSITIONS FOR COMBATING THROMBOTIC DISEASES AND THEIR PREPARATION AND USES” (INSTITUTE OF RADIATION MEDICINE, ACADEMY OF MILITARY …, priority 2009, published 2012):
“Also recorded” adds a separate entry of the source.

Experiments:
[1] = tested on: platelet aggregation induced by ADP; assay: ADP-induced maximum platelet aggregation rate after gastric administration (Example 1); type: in vivo, Wistar rats; details: 40 mg/Kg gastric once per day 7 days; blood 1 h after last dose; ADP 20 μM
Experimental: Wistar rats, after 1 h of administration on the 7th day, were anesthetized by intraperitoneal injection of pentobarbital sodium (40-60 mg/kg), blood samples were collected from hearts, anti-coagulated with 3.8% sodium citrate (volume ratio: 1:9). Centrifugation was performed under 800 rpm and room temperature for 10 min to separate platelet-rich plasmas (PRP), then centrifugation was performed again under 3000 rpm and room temperature for 20 min to separate platelet-poor plasmas (PPP). Counting was performed by using F-820 blood cell counter, and PRP was adjusted with PPP to have a concentration of 3.0×10^11/L.
(§1) Chronolog platelet aggregation analyzer test: Platelet suspension was adjusted with plasma to have a concentration of 3.0×10^11/L, the platelet to aggregation analyzer was turned on and pre-warmed for 30 min, and PPP was used as a blank control to adjust transmittance to be 100%. 450 μL of platelet suspension were taken, stirred with a stir bar and pre-warmed at 37° C. for 3 min, and separately added with inducing agent (50 μL) ADP agent (final concentration: 20 μM), then 5 min diagram was recorded, and aggregation rates at 1 min, 3 min and 5 min and the maximum aggregation rates were read.
Blood samples were collected from heart of anaesthetized mice after 1 h of the last gastric administration of timosaponins, and analyzed to determine the rates of platelet aggregation induced by ADP (20 μM) after administration.

[2] = tested on: artery-vein bypass thrombosis; assay: Artery-vein bypass thrombosis (Example 1); type: in vivo, Wistar rats; details: 40 mg/Kg gastric once per day 7 days; bypass 15 min
Experimental: The pipe was taken down after 15 min, thrombus was taken out, rolled on a wet filter paper, residual blood was removed, placed on a parchment paper and weighed to obtained its wet weight. Then, it was placed in a drying oven and dried at 60° C. for 1 h to reach a constant weight, cooled and weighed to obtain the dry weight of thrombus.

[3] = tested on: caudal vein bleeding; assay: Caudal vein bleeding time in mice; details: 40 mg/Kg gastric twice per day 5 days, test 1 h after dose on 6th day
Experimental: Mice were randomly divided into 7 groups: control group, aspirin group (ASP,40 mg/Kg), BII group (40 mg/Kg), AIII group (40 mg/Kg), 1:1 group (weight ratio of AIII to BII, 40 mg/Kg), 1:3 group (weight ratio of AIII to BII, 40 mg/Kg), 3:1 group (weight ratio of AIII to BII, 40 mg/Kg). Continuous gastric administration was performed for 5 days, twice per day, and the experiments were conducted after 1 h of the administration on the 6th day. The control group was administered with physiological saline of the same volume. All drug ratios were AIII to BII.
Mice were anesthetized with pentobarbital sodium (40-60 mg/kg), placed on a worm and comfortable pad, a tail tip was cut at a place where the tail of mice had to a diameter of 2.25-2.5 mm, and immediately placed in PBS (37° C.), timing started. Hemostatic time and re-bleeding time within 10 min were observed, and the bleeding volume of mice was presumed by hemoglobin volume.

[4] = tested on: thrombotic agent consisting of collagen and adrenalin; assay: Lethal time in mice by caudal vein injection of collagen; type: in vivo, Kunming mice; details: 40 mg/Kg gastric twice per day 5 days, test 1 h after dose on 6th day; observed within 10 min
Experimental: Mice were fixed on mice-fixed frame, and thrombotic agent (100 μg/mouse) consisting of collagen (0.5 mg/kg) and adrenalin (60 ug/kg) were administered by caudal vein injection. The symptoms, symptom occurrence time, and the lethal time in mice were observed within 10 min, and mice […] after 10 min were deemed as survival.

[5] = tested on: jugular artery-vein bypass thrombosis; assay: Artery-vein bypass thrombosis in rats (Example 3); type: in vivo, Wistar rats; details: aspirin 40 mg/kg gastric once per day 7 days; bypass 20 min
Experimental: Then, it was placed in a drying oven and dried at 60° C. for 1 h to reach a constant weight, cooled and weighed to obtain the dry weight of thrombus. […] The aspirin positive control group gave thrombus dry and wet weights slightly higher than those of the large dose group, and had significant difference from the control group.

[6] = tested on: ADP-induced platelet aggregation; assay: ADP-induced platelet aggregation rate in rats after gastric administration (Example 3); type: in vivo, Wistar rats; details: aspirin 40 mg/kg gastric once per day 7 days; ADP 20 μM; in %
Experimental: Wistar rats were randomly divided into 5 groups, i.e., blank control group, aspirin 40 mg/kg group, the present pharmaceutical composition 10 mg/kg, 20 mg/kg and 40 mg/kg groups, the animals of the groups were subjected to continuous gastric administration for 7 days, once per day, dose volume was 10 mL/kg, operation was conducted after 1 h of administration on the 7th day, and the blank control was administered with distilled water of the same volume. […]
as §1, with “platelet” for “platelet to”, “on,” for “on and pre-warmed for 30 min,”
The administration method of the present pharmaceutical composition and the grouping method were identical to that of the third part, blood samples were collected from hearts of rats on the 7th day after administration, and the ADP-induced platelet aggregation and bleeding/coagulation time (PT, TT and APTT) of the same batch were determined. […]

[7] = tested on: blood coagulation; assay: Blood coagulation parameters APTT, PT and TT in rats; type: in vivo, Wistar rats; details: aspirin group (40 mg/kg) gastric once per day 7 days
Experimental: Wistar rats were randomly divided into 5 groups, i.e., blank control group, aspirin 40 mg/kg group, the present pharmaceutical composition 10 mg/kg, 20 mg/kg and 40 mg/kg groups, the animals of the groups were subjected to continuous gastric administration for 7 days, once per day, dose volume was 10 mL/kg, operation was conducted after 1 h of administration on the 7th day, and the blank control was administered with distilled water of the same volume.
Blood samples were collected, plasmas were separated, and the operation was conducted according to the specification of kits.
The administration method of the present pharmaceutical composition and the grouping method were identical to that of the third part, blood samples were collected from hearts of rats on the 7th day after administration, and the ADP-induced platelet aggregation and bleeding/coagulation time (PT, TT and APTT) of the same batch were determined. […] The aspirin group gave a platelet aggregation rate lower than that of the control group, to but had no significant difference.

[8] = tested on: platelet aggregation; assay: In vitro activity screening: platelet aggregation; type: cell-based
[9] = tested on: human platelet aggregation; details: single compounds; cited from earlier work
[10] = tested on: blood coagulation; details: single compounds; cited from earlier work
[11] = tested on: blood vessels; assay: In vitro activity screening: expanding blood vessels
[12] = tested on: rats with cerebral ischemia; details: rat, in vivo; cited from earlier work

Molecule: CC(=O)Oc1ccccc1C(=O)O [ASP, Aspirin]
- Maximum aggregation rate (%) [1]: 40.8 ± 7.6 %
- Thrombus dry weight [2]: 25.5 ± 7.37 mg
- Thrombus wet weight [2]: 79.74 ± 18.95 mg
- Bleeding volume [3]: 13.5 ± 13.8 µL
- Hemostatic time (s) ([3]; cut-off 600 s): 277.4 ± 188.5^★★★ s
- Hemostatic time ([3]; cut-off 600 s, listed as aspirin): 277.4 ± 188.5 s
- Lethal time (s) [4]: 244.6 ± 195.3 ^★ s
- Thrombus weight (mg) Dry weight [5]: 26.7 ± 6.4 mg
- Thrombus weight (mg) Wet weight [5]: 79.7 ± 19.0 mg
- PLT maximum aggregation rate [6]: 49.1 ± 4.8
- Coagulation time (s) APTT [7]: 17.50 ± 2.37 s
- Coagulation time (s) PT [7]: 16.49 ± 2.08 s
- Coagulation time (s) TT [7]: 28.98 ± 0.97 s

Molecule: C[C@H]1CC[C@@]2(OC1)O[C@H]1C[C@H]3[C@@H]4CC[C@@H]5C[C@@H](O[C@@H]6O[C@H](CO)[C@H](O)[C@H](O)[C@H]6O[C@@H]6O[C@H](CO)[C@@H](O)[C@H](O)[C@H]6O)CC[C@]5(C)[C@H]4CC[C@]3(C)[C@H]1[C@@H]2C [AIII, timosaponin AIII]
- Maximum aggregation rate (%) [1]: 39.8 ± 5.0 %
- Thrombus dry weight [2]: 24.4 ± 6.30 mg
- Thrombus wet weight [2]: 64.29 ± 22.58 mg
- Bleeding volume [3]: 21.3 ± 29.6 µL
- Hemostatic time (s) ([3]; cut-off 600 s): 396.6 ± 208.9^★★★ s
- inhibition of platelet aggregation in vitro [8]: significantly inhibit; also recorded: significant inhibitive effect
- activity against human platelet aggregation [9]: significant activity
- extending blood coagulation time [10]: significant activity

Molecule: CC1=C(CC[C@H](C)CO[C@@H]2O[C@H](CO)[C@@H](O)[C@H](O)[C@H]2O)O[C@H]2C[C@H]3[C@@H]4CC[C@@H]5C[C@@H](O[C@@H]6O[C@H](CO)[C@H](O)[C@H](O)[C@H]6O[C@@H]6O[C@H](CO)[C@@H](O)[C@H](O)[C@H]6O)CC[C@]5(C)[C@H]4CC[C@]3(C)[C@@H]12 [BIII]
- activity against human platelet aggregation [9]: significant activity
- extending blood coagulation time [10]: significant activity

Molecule: CO[C@]1(CC[C@H](C)CO[C@@H]2O[C@H](CO)[C@@H](O)[C@H](O)[C@H]2O)O[C@H]2C[C@H]3[C@@H]4CC[C@@H]5C[C@@H](O[C@@H]6O[C@H](CO)[C@H](O)[C@H](O)[C@H]6O[C@@H]6O[C@H](CO)[C@@H](O)[C@H](O)[C@H]6O)CC[C@]5(C)[C@H]4CC[C@]3(C)[C@H]2[C@@H]1C [BI]
- activity against human platelet aggregation [9]: significant activity
- extending blood coagulation time [10]: significant activity

Molecule: timosaponins Ia
- activity against human platelet aggregation [9]: significant activity
- extending blood coagulation time [10]: significant activity

Molecule: C[C@@H](CC[C@@]1(O)O[C@H]2C[C@H]3[C@@H]4CC[C@@H]5C[C@@H](O[C@@H]6O[C@H](CO)[C@H](O)[C@H](O)[C@H]6O[C@@H]6O[C@H](CO)[C@@H](O)[C@H](O)[C@H]6O)CC[C@]5(C)[C@H]4CC[C@]3(C)[C@H]2[C@@H]1C)CO[C@@H]1O[C@H](CO)[C@@H](O)[C@H](O)[C@H]1O [BII, timosaponin BII]
- Maximum aggregation rate (%) [1]: 50.8 ± 6.7%
- Thrombus dry weight [2]: 28.6 ± 7.82 mg
- Thrombus wet weight [2]: 90.39 ± 29.59 mg
- Bleeding volume [3]: 10.7 ± 9.8 µL
- Hemostatic time (s) ([3]; cut-off 600 s): 325.1 ± 200.6^★★★ s
- inhibition of platelet aggregation in vitro [8]: could not inhibit
- expanding blood vessels [11]: could expand blood vessels; also recorded: significant effect of expanding blood vessels
- activity against human platelet aggregation [9]: significant activity
- extending blood coagulation time [10]: significant activity
- blood rheology [12]: significantly improve
- cerebral edema [12]: alleviate
- cerebral infarction area [12]: reduce
- nervous symptoms of rats with cerebral ischemia [12]: significantly improve
